Reference: PubChem BioAssay AID2060500 (Molecular Pharmacology Branch, DTP, NCI, 2025)

System: 596521-263-R-J1-PDC complex spheroids, viability % of control
Assay: Anticancer human tumor 596521-263-R-J1-PDC patient-derived soft tissue sarcoma cell line growth inhibition [GQUAD]
Settings: for IC50: curve of first compound; for viability, T/C: stronger effect = lower value
Outline: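 Viability of tumor cells grown as complex spheroids with endothelial and stromal cells, exposed to drug combinations. Top concentration at or near clinical Cmax (else 10 microM), diluted in half-log increments.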

[1] = second compound 0.0316 µM, first compound 0.0316 µM
[2] = second compound 0.0316 µM, first compound 0.1 µM
[3] = second compound 0.0316 µM, first compound 0.316 µM
[4] = second compound 0.0316 µM, first compound 1 µM
[5] = second compound 0.0316 µM, first compound 3.16 µM
[6] = second compound 0.0316 µM, first compound 10 µM
[7] = second compound 0.1 µM, first compound 0.0316 µM
[8] = second compound 0.1 µM, first compound 0.1 µM
[9] = second compound 0.1 µM, first compound 0.316 µM
[10] = second compound 0.1 µM, first compound 1 µM
[11] = second compound 0.1 µM, first compound 3.16 µM
[12] = second compound 0.1 µM, first compound 10 µM
[13] = second compound 0.316 µM, first compound 0.0316 µM
[14] = second compound 0.316 µM, first compound 0.1 µM
[15] = second compound 0.316 µM, first compound 0.316 µM
[16] = second compound 0.316 µM, first compound 1 µM
[17] = second compound 0.316 µM, first compound 3.16 µM
[18] = second compound 0.316 µM, first compound 10 µM
[19] = second compound 1 µM, first compound 0.0316 µM
[20] = second compound 1 µM, first compound 0.1 µM
[21] = second compound 1 µM, first compound 0.316 µM
[22] = second compound 1 µM, first compound 1 µM
[23] = second compound 1 µM, first compound 3.16 µM
[24] = second compound 1 µM, first compound 10 µM
[25] = second compound 3.16 µM, first compound 0.0316 µM
[26] = second compound 3.16 µM, first compound 0.1 µM
[27] = second compound 3.16 µM, first compound 0.316 µM
[28] = second compound 3.16 µM, first compound 1 µM
[29] = second compound 3.16 µM, first compound 3.16 µM
[30] = second compound 3.16 µM, first compound 10 µM
[31] = second compound 10 µM, first compound 0.0316 µM
[32] = second compound 10 µM, first compound 0.1 µM
[33] = second compound 10 µM, first compound 0.316 µM
[34] = second compound 10 µM, first compound 1 µM
[35] = second compound 10 µM, first compound 3.16 µM
[36] = second compound 10 µM, first compound 10 µM
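Note: spheroids exposed to drugs for 7 days before viability reading.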
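Throughout, for viability, T/C: 100% = DMSO vehicle control viability.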

C=CCn1c(=O)c2cnc(Nc3ccc(N4CCN(C)CC4)cc3)nc2n1-c1cccc(C(C)(C)O)n1 + Cc1[nH]c2ccc(F)cc2c1-c1nc2c3cccnc3c3ncccc3c2[nH]1
IC50 (second compound 0.0316 µM): 5.81 µM | IC50 (second compound 0.1 µM): 5.31 µM | IC50 (second compound 0.316 µM): 5.46 µM | IC50 (second compound 1 µM): 5.29 µM | IC50 (second compound 3.16 µM): 5.68 µM | IC50 (second compound 10 µM): 5.57 µM | viability, T/C [1]: 99.1% | viability, T/C [2]: 97.8% | viability, T/C [3]: 92.5% | viability, T/C [4]: 88% | viability, T/C [5]: 69.9% | viability, T/C [6]: 32% | viability, T/C [7]: 120% | viability, T/C [8]: 91.6% | viability, T/C [9]: 92.5% | viability, T/C [10]: 94.7% | viability, T/C [11]: 64.8% | viability, T/C [12]: 30% | viability, T/C [13]: 110% | viability, T/C [14]: 88.3% | viability, T/C [15]: 81.7% | viability, T/C [16]: 84.5% | viability, T/C [17]: 70.3% | viability, T/C [18]: 31.2% | viability, T/C [19]: 102% | viability, T/C [20]: 88.8% | viability, T/C [21]: 86.7% | viability, T/C [22]: 90.2% | viability, T/C [23]: 64.3% | viability, T/C [24]: 31.3% | viability, T/C [25]: 83.7% | viability, T/C [26]: 85% | viability, T/C [27]: 92.1% | viability, T/C [28]: 86.2% | viability, T/C [29]: 66.8% | viability, T/C [30]: 33.7% | viability, T/C [31]: 90.3% | viability, T/C [32]: 82.2% | viability, T/C [33]: 84.5% | viability, T/C [34]: 79.2% | viability, T/C [35]: 69.4% | viability, T/C [36]: 31.2%

COc1ncnc(C2CC2)c1-c1ncc2cnn(Cc3ccc(-c4nc(C(F)(F)F)cn4C(C)C)cc3)c2n1 + Cc1[nH]c2ccc(F)cc2c1-c1nc2c3cccnc3c3ncccc3c2[nH]1
IC50 (second compound 0.0316 µM): 1.46 µM | IC50 (second compound 0.1 µM): 1.5 µM | IC50 (second compound 0.316 µM): 1.19 µM | IC50 (second compound 1 µM): 1.19 µM | IC50 (second compound 3.16 µM): 1.2 µM | IC50 (second compound 10 µM): 0.991 µM | viability, T/C [1]: 100% | viability, T/C [2]: 88.8% | viability, T/C [3]: 79.6% | viability, T/C [4]: 56.9% | viability, T/C [5]: 33.5% | viability, T/C [6]: 2.52% | viability, T/C [7]: 98.8% | viability, T/C [8]: 90.4% | viability, T/C [9]: 75.6% | viability, T/C [10]: 67% | viability, T/C [11]: 27.1% | viability, T/C [12]: 2.12% | viability, T/C [13]: 85.8% | viability, T/C [14]: 95.4% | viability, T/C [15]: 80.3% | viability, T/C [16]: 49.7% | viability, T/C [17]: 27.8% | viability, T/C [18]: 1.85% | viability, T/C [19]: 87.2% | viability, T/C [20]: 78.8% | viability, T/C [21]: 75% | viability, T/C [22]: 49.9% | viability, T/C [23]: 31.1% | viability, T/C [24]: 1.7% | viability, T/C [25]: 84.9% | viability, T/C [26]: 95.3% | viability, T/C [27]: 68.5% | viability, T/C [28]: 53.9% | viability, T/C [29]: 29.4% | viability, T/C [30]: 2.26% | viability, T/C [31]: 95.4% | viability, T/C [32]: 76.7% | viability, T/C [33]: 71.3% | viability, T/C [34]: 54.6% | viability, T/C [35]: 20.6% | viability, T/C [36]: 1.93%
